Laboratory results reported in patent US20210369681A1, “Identification of PPM1D mutations as a novel biomarker for NAMPTi sensitivity” (YALE UNIVERSITY, priority 2018, published 2021).

Columns and labels:
[1] = tested on: SU-DIPG-IV, XIII, and XVII (WT DIPG lines); assay: DIPG spheroid viability (CytoTox-Glo), SU-DIPG lines; type: cell-based, human
[2] = tested on: MCF7; assay: MCF7 cell viability; type: cell-based, human; details: 96 hr treatment
Procedure: (§1) hTert/E6/E7 immortalized human astrocytes were acquired from the lab of Dr. Timothy Chan, and have been previously characterized. Unless noted otherwise, astrocytes were grown in DMEM, high glucose (ThermoFisher Scientific/Gibco) plus 10% FBS (Gibco) as adherent monolayers. U2OS cells were purchased from ATCC, and were grown in DMEM, high glucose plus 10% FBS. MCF7 cells were grown in RPMI1640 (ThermoFisher Scientific/Gibco) with the addition of 10% FBS.

[3] = tested on: serially-transplanted PPM1D mutant astrocyte xenografts; assay: Serially-transplanted PPM1D mutant astrocyte xenografts; type: in vivo, NSG mice; details: 20 mg/kg BID
Procedure: (§2) Astrocyte xenograft studies were performed in NOD scid gamma (NSG, NOD.Cg-Prkdc^scidIl2rg^tm1Wj1/SzJ female mice 3-4 weeks old) mice. For cell line xenografts, 5×10^6 WT or PPM1D^trnc. astrocytes, stably expressing firefly luciferase (lentivirus-plasmids from Cellomics Technology; PLV-10003), were combined with Matrigel (Corning, 47743-722) in a total volume of 0.2 mL. Cell-Matrigel suspension was injected subcutaneously into both the right and left flanks of shaved NSG mice. Mice were randomly sorted into treatment groups, and tumor burden and growth were measured on a weekly basis, via BLI intensity, as described below. FK866 was solubilized in DMSO at a concentration of 80 mg/ml. Mice were then administered the drug intraperitoneally twice a day for 4 days, repeated weekly for 3 weeks at 20 mg/kg in 10% cyclodextrin. Treatment began after one month of growth. Tumors were harvested after completion of treatment, and mass for each tumor was measured. Serially transplanted xenografts were created via continuous transplantation of PPM1D^trnc. cell line xenografts in NSG mice. […] Mice were sorted randomly into treatment groups, and tumor volume was measured using standard caliper-based techniques. Tumor volume was calculated as length×width^2×0.52. […] Mice were sorted randomly into treatment groups, and tumor burden was assessed through caliper measurement and volume calculations. […]

[4] = tested on: U2OS cell line xenografts; assay: U2OS cell line xenografts; type: in vivo, athymic nude mice
[5] = tested on: U2OS; assay: U2OS cell viability; type: cell-based, human; details: 96 hr treatment
Procedure: as §1

[6] = tested on: parental and PPM1Dtrnc. immortalized human astrocytes; type: cell-based
Procedure: In vitro cellular viability assessments of immortalized human astrocytes, MCF7, and U2OS cell lines were made using a previously described, high-content, microscopy platform developed by our group. In brief, cells were plated in a 96-well plate at a density of 2000 cells/well, and incubated overnight. Drug treatment or vehicle (0.5% DMSO) control was administered, and cells were incubated for 72-96 hours as indicated. Plates were then washed with PBS and fixed with ice-cold 70% ethanol for 2 hours at 4° C. […] Cells were imaged using a Cytation3 imager (BioTek), and images were stitched and analyzed as described above. Viability assessments were made comparing drug treated to vehicle treated conditions. SU-DIPG and HSJD-DIPG-007 spheroid viability was assessed using CytoTox-Glo (Promega), according to the manufacturer's protocols. Spheroids were treated with FK866 for 120 hours before analysis using this method. IC50 calculations were made using GraphPad Prism, by fitting data to an [inhibitor] vs response−variable slope four parameter nonlinear regression (as depicted in the representative figures). siRNA Transfection and Viability Analysis Individual NAPRT targeting siRNAs were ordered from Dharmacon Inc. (Horizon Discovery), with target sequences listed in Table 1. The panel of siRNAs used for synthetic lethal viability screening was hand-selected and ordered from Dharmacon Inc. and were provided in ON-TARGET plus mixtures, each containing up to four unique siRNAs per gene. 2×10^5 astrocytes were reverse-transfected with different siRNAs (200 nM final concentration), using Lipofectamine RNAiMAX (Invitrogen), according to manufacturer's protocols. For individual siRNAs, cells were incubated for 72 hours, pelleted, and lyzed for immunoblotting. For the siRNA screen, cells were incubated for 24 hours and split to different condition plates, where they were incubated for an additional 24 hours. Cells were then treated with the described doses of FK866, and viability was assessed after 72 hours of drug treatment, using the image-based pipeline described above. Viability measurements were made for each siRNA, and normalized to FK866-untreated conditions.
Given the role of PPM1D in DDR pathways, we performed a small molecule synthetic lethal screen with a panel of inhibitors against key DNA repair and metabolic proteins, using methodology described previously by our group.

[7] = tested on: NAD and NADP levels in WT and PPM1Dtrnc. astrocytes; assay: NAD / NADP quantification in astrocytes; type: cell-based, human; details: 10 nM FK866, 24 hrs
Procedure: The NAD metabolome was quantitatively analyzed using LC-MS/MS, using two separations on Hypercarb and 13C metabolite standards. Subsequent NAD level analyses were performed using a NAD/NADH Quantification kit (Sigma), as per the manufacturer's specifications. Me/hME-DIP, Bisulfite Conversion, and Global 5-hmC Detection Genomic DNA was purified using the Wizard Genomic DNA purification kit (Promega), and subsequently immunoprecipitated or bisulfite-converted. […] Immunoprecipitated DNA was extracted with phenol/chloroform and analyzed using quantitative PCR (qPCR), as described below. Bisulfite conversion was performed via EpiMark Bisulfite Conversion kit (NEB). Modified DNA was then amplified using EpiMark Hot Start Taq DNA polymerase (NEB), with primers listed in Table 1, and purified with a PCR purification kit (Qiagen). Methylation was then assessed through Sanger-sequencing of the NAPRT promoter. Global 5-hydroxymethylcytosine levels were assessed via the Global 5-hmC quantification kit (Active Motif), according to manufacturer's protocols. Quantitative PCR (qPCR) mRNA transcripts were purified from cells using a RNAeasy kit (Qiagen) and subsequently reverse transcribed using a High Capacity cDNA reverse transcription kit (Applied Biosystems). PPM1D and NAPRT gene expression levels were assessed through qPCR with TaqMan fluorescent probes (all from Applied Biosystems): PPM1D (4331182), NAPRT (4351372), and Actin (4333762F), according to manufacturer's protocol. Expression level fold change was calculated via ΔΔCt comparison, using Actin as a reference gene. The NAPRT promoter region was quantitated via qPCR using Fast Start Universal SYBR Green Master with ROX (Roche), and primers listed in Table 1. All qPCR reactions were run on a StepOnePlus Real Time PCR system (Applied Biosystems).

[8] = tested on: SU-DIPG-XXXV; assay: DIPG spheroid viability (CytoTox-Glo), PPM1D mutant line; type: cell-based, human; details: 120 hr treatment; spheroids
[9] = tested on: PPM1Dtrnc. astrocyte xenografts; assay: PPM1Dtrnc. astrocyte cell line xenografts; type: in vivo, NOD scid gamma (NSG) mice; details: 20 mg/kg BID i.p.
Procedure: as §2

[10] = tested on: NAPRT expression in PPM1Dtrnc. cells; assay: NAPRT immunoblot after DNA demethylating agents; type: cell-based, human; details: varying doses, 72 hrs
Procedure: PPM1D^trnc. astrocytes were treated with 50 µg/mL cycloheximide or 1 μM MG132 (both Sigma) for the indicated amount of time. Cells were then washed, pelleted, and lyzed for subsequent immunoblotting approaches, as described above. Quantification of immunoblot intensity was calculated using ImageJ software, and consisted of multiple (n=3) blots. Irradiation of cells was performed using an X-RAD KV irradiator (Precision X-ray), and treatment consisted of an unfractionated, 10 Gy dose. PPM1D inhibitor treatment with GSK2830371 (Selleckchem), consisted of 50 nM treatment, 24 hours prior to IR. FK866 (Selleckchem), GPP78 (Tocris Bioscience), STF118804 (Tocris Bioscience), STF31 (Tocris Bioscience), 5-azacytidine (Selleckchem), and Decitabine (Selleckchem) were dissolved in DMSO and used for treatment as indicated.

| Structure (SMILES) | Sensitivity to FK866 in media devoid of nicotinic acid ([1]; all SU-DIPG spheroid cultures tested, growth media devoid of nicotinic acid (NA)) | Response to FK866 treatment ([1]; three WT DIPG lines, 120 hr, NA-containing media) | Sensitivity to FK866 treatment [2] | Reduced overall tumor size, fold change ([3]; 3 cycles of four days on, three days off, calipers and BLI, vs vehicle) | Tumor growth delay (Kaplan-Meier) ([3]; 3 cycles, compared to a vehicle control) | Tumor volume, fold change ([4]; 20 mg/kg BID for 3 four day weekly cycles, vs vehicle) | Body mass difference between the treatment groups ([4]; all mice on study, throughout the dosing schedule (FIG. 13B)) | Sensitivity to FK866 treatment [5] | IC50 ratio (Parental/PPM1Dtrnc.) [6] | Decline of NAD and NADP compared with WT astrocytes ([7]; PPM1Dtrnc. cells) | Cellular pools of NAD and NADP ([7]; WT astrocytes) | Cytotoxic doses [8] | Lower final tumor mass, fold change ([9]; 3 cycles, versus vehicle alone) | Reduction in tumor burden (BLI), fold change ([9]; 4 days weekly for 3 weeks, after three weeks, vs vehicle) | Reversal of NAPRT gene silencing [10] |
| --- | --- | --- | --- | --- | --- | --- | --- | --- | --- | --- | --- | --- | --- | --- | --- |
| O=C(/C=C/c1cccnc1)NCCCCC1CCN(C(=O)c2ccccc2)CC1 [FK866] | strong sensitivity | resistant | strong sensitivity | 17.1 | significantly delayed | 5.86 | no significant differences | strong sensitivity | 9746.59 | significantly greater | dropped markedly | low, single-digit nanomolar range | 3.1 | 4.93 |  |
| Nc1ncn([C@@H]2O[C@H](CO)[C@@H](O)[C@H]2O)c(=O)n1 [azacytidine] |  |  |  |  |  |  |  |  |  |  |  |  |  |  | failed to reverse |
